Laboratory results: US20100196376A1, “METHOD FOR REDUCING ALLERGEN-INDUCED AIRWAY HYPERRESPONSIVENESS” (National Jewish Health, priority 2001, published 2010)

Columns and labels:
Format in all cases: in vivo, mouse (BALB/c)
[1] = test system: ovalbumin-sensitized and challenged mice (airway hyperresponsiveness to methacholine); experiment: Airway function: change in lung resistance (RL) and dynamic compliance (Cdyn) after aerosolized methacholine, ovalbumin-sensitized and challenged mice
Protocol: (§1) Mice (8/group/experiment) were sensitized by intraperitoneal injection of 20 μg of ovalbumin (Grade V, Sigma) emulsified in 2.25 mg alum (Alum® Inject; Pierce, Rockford, Ill.) in a total volume of 100 μl on days 0 and 14. On days 28, 29 and 30, mice were challenged via the airways by a 20-minute inhalation exposure to aerosols of ovalbumin (1% in saline) obtained from a DeVilbiss ultrasonic nebulizer (particle size 1-5 μm). Age-matched, control animal groups (8/group/experiment) consisted of mice injected with alum alone (non-sensitized) and exposed either to aerosols of saline or to aerosolized ovalbumin, and mice sensitized to ovalbumin but subsequently exposed to aerosols of saline.
Briefly, mice were sensitized and challenged to ovalbumin as described in Example 1. Airway function was assessed in vivo in anesthetized, mechanically ventilated mice as previously described (see, for example, Takeda et al., 1997, J. Exp. Med. 186, 449-454) by measuring changes in lung resistance (RL) and dynamic compliance (Cdyn) in response to intratracheal challenge with aerosolized methacholine at doses of 1.56, 3.125, 6.25 and 12.5 mg/ml in saline. Baseline values were recorded from data obtained after intra-tracheal challenge with aerosolized saline. The data are presented in percent of change from baseline RL, and Cdyn.

[2] = test system: ovalbumin-sensitized and challenged mice (BAL eosinophils); experiment: Bronchoalveolar lavage (BAL) differential cell counts, ovalbumin-sensitized and challenged mice; conditions: i.p. 2 h prior to each allergen challenge; CGRP 20 μg/kg, CGRP fragment 8-37 100 μg/kg (FIG. 3C)
Protocol: as §1
Following assessment of airway function, the lungs were lavaged once with 1 ml of sterile Hank's balanced salt solution (HBSS) pre-warmed at 37° C. The recovered BAL fluids were placed in Eppendorf tubes and were centrifuged at 4° C. for 5 min at 1,500 rpm. The obtained cell pellets were resuspended in 200 μl of sterile phosphate-buffered saline (PBS) and total cell numbers were determined from counting of crystal violet-stained aliquots using a hemacytometer. Differential cell counts were determined from cytospin preparations stained with Leukostat (Fisher Diagnostics, Pittsburgh, Pa.). At least 200 cells were counted from each slide in a blinded fashion.

[3] = test system: ovalbumin-sensitized and challenged mice (tissue infiltrating eosinophils); experiment: Tissue infiltrating eosinophils, MBP immunoperoxidase and morphometric analysis of lung sections; conditions: i.p. 2 h prior to each allergen challenge; CGRP 20 μg/kg, CGRP fragment 8-37 100 μg/kg (FIG. 3D)
Protocol: For histology and immunohistochemistry, the lungs of the mice were inflated and fixed with 4% paraformaldehyde in PBS for 24 h at 4° C. followed by processing into paraffin. Five μm-thick sections were cut from the paraffin blocks, deparaffinized and stained with hematoxylin and eosin for routine histology.
The pan neuronal marker PGP9.5, CGRP and tissue eosinophils were detected by immunoperoxidase. Unless otherwise stated, all incubations were carried out at room temperature. All washes were performed with TBS (50 mM TRIS-buffered saline pH 7.6) 3 times for 5 min. Endogenous peroxidase was blocked by incubation of tissue sections with H2O2 (0.3% in methanol) for 30 minutes. […]
For tissue eosinophils, the sections were pretreated for 5 min with 0.01% trypsin in TBS to retrieve antigens. […] CGRP was detected with a polyclonal rabbit anti-CGRP antibody (Biogenesis) diluted 1:200. […]
The data of immunohistochemistry were quantitatively analyzed (morphometric analysis) on a G-3 Macintosh computer using the National Institutes of Health (NIH) Scion Image analysis software. […]
The number of tissue infiltrating eosinophils was determined by counting all MBP-positive cells present in the airway wall including the adventitia. When eosinophils were present in tissue areas connecting blood vessels to adjacent airways only 50% of these cells were counted for these airways. […]

“CGRP(8-37): highly selective CGRP receptor antagonist, human synthetic CGRP (fragment 8-37), from Sigma” was tested, and the “Inhibitory effect of CGRP on AHR after pretreatment with the receptor antagonist” value ([1]; CGRP i.p. after allergen challenge period, animals pretreated with CGRP(8-37) (FIGS. 4A, 4B)) was “totally neutralized”, the “AHR in sensitized mice” value ([1]; administration after the period of allergen challenge, CGRP i.p. at 2 h prior to assessment of airway function (FIGS. 4A, 4B)) was “did not alter” and the “Extent / development of AHR” value ([1]; i.p. 2 h prior to each allergen challenge, CGRP 20 μg/kg, CGRP fragment 8-37 100 μg/kg (FIGS. 3A, 3B)) was “did not produce any significant change”. The “Numbers of BAL eosinophils” value [2] was “no significant effect” and the “Numbers of tissue infiltrating eosinophils” value [3] was “no significant effect”.
